Laboratory results from patent publication US20060258745A1, “Deramciclane-fumarate tablets” (EGIS GYOGYSZERGYAR RT., priority 2003, published 2006).

Columns and labels:
[1] = Crushing strength of compressed pure deramciclane-fumarate powder; type: physicochemical; conditions: 300 mg powder, die cavity of 10 mm diameter, eccentric press, compression force 5-40 kN
From the text: Due to the weak cohesion characteristics of deramciclane-fumarate on compression of the particles of the active ingredient acceptable tablet strength can not be obtained.

Water solubility = type: physicochemical

For `CN(C)CCOC1(c2ccccc2)CC2CCC1(C)C2(C)C.O=C(O)/C=C/C(=O)O` [deramciclane-fumarate, (1R,2S,4R)-(−)-2-dimethylaminoethoxy-2-phenyl-1,7,7-trimethyl-bicyclo[2.2.1]heptane-2-(E)-butenedioate (1:1)], the “crushing strength of the tablets” value [1] was no more than 10 N and the water solubility (Water solubility) was “low water solubility”.
